Assay results from US20230054194A1, “Methods of Treating Cancer” (ARIAGEN, INC., priority 2018, published 2023).

Legend:
B16F10 = B16F10 subcutaneous syngeneic melanoma mouse model (Study 10), tumor growth inhibition; type: in vivo, mouse (C57BL/6)
Description: (§1) In this example, the in vivo anti-tumor efficacy of ARI-001, ARI-002, ARI-003, and ARI-143 and their combinations with an anti-PD-1 antibody was evaluated using a panel of twelve subcutaneous syngeneic mouse tumor models.
(§2) Eleven subcutaneous syngeneic mouse tumor models were generated by innoculating female BALB/C or C57BL/6 mice with cancer cells at their right lower or right front flank followed by randomization as detailed in Table 4 below.
(§3) A solution of a rat monoclonal anti-mouse PD-1 antibody (isotype IgG2a, κ) at a concentration of 6.61 mg/ml was obtained from BioXcell (InVivoMAb anti-mouse PD-1 (CD279), Clone RMP1-14, Cat #BE0146)) and store at 4° C. The antibody solution was diluted with PBS to obtain a 1 mg/ml dosing solution.
(§4) ARI-001, ARI-002, and ARI-003 powder was stored at −20° C. The powder of each compound was dissolved in DMSO to obtain dosing solutions at 106.7, 80, and 53.33 mg/ml for administration to mice at 160, 120, and 80 mg/kg, respectively. ARI-143 was similarly prepared.
(§5) Twelve studies using the twelve subcutaneous syngeneic mouse tumor models were performed. In each study, 80 mice were enrolled and randomly allocated to eight different study groups, with 10 mice in each study group. The mean tumor size at randomization was approximately 80-120 mm^3 (around 100 mm^3). Randomization was performed based on “Matched distribution” randomization method (StudyDirector™ software, version 3.1.399.19). […] All the drugs and vehicle controls were injected to the mice intraperitoneally.
(§6) After tumor cell inoculation, the animals were checked daily for morbidity and mortality. At the time of routine monitoring, the animals were checked for any effects of tumor growth and treatments on behavior such as mobility, food and water consumption, body weight gain/loss (body weights were measured twice or three times per week after randomization), and any other abnormalities. Mortality and observed clinical signs were recorded for individual animals. Tumor volumes were measured twice or three times weekly after randomization in two dimensions using a caliper, and the volume was expressed in mm^3 using the formula: […]
(§7) where V is tumor volume, L is tumor length (the longest tumor dimension) and W is tumor width (the longest tumor dimension perpendicular to L).
(§8) The study was terminated when the mean tumor volume (MTV) in the vehicle group reached a value of 2,000 mm^3. Tumor growth inhibition (TGI) is an indication of antitumor activity, and expressed as: […]
(§9) where T and C are the MTV (or weight) of the treated and control groups, respectively, on a given day. Statistical analysis of the difference in MTV among the groups was conducted using the data collected on the day when the MTV of the vehicle group reached the humane endpoints, so that TGI could be derived for all or most mice enrolled in the study.
(§10) Statistical analysis of differences in MTV among the groups was conducted by Independent-Samples T Test using the data collected. All data were analyzed with SPSS (Statistical Product and Service Solutions) version 18.0 (IBM, Armonk, N.Y., U.S.). P-values were rounded to three decimal places, with the exception that raw P-values less than 0.001 were stated as P<0.001. All tests were two-sided. P<0.05 was considered to be statistically significant.
FIG. 69 is a graph showing the mean tumor volume on different study days in the study groups as indicated according to Study 10 (B16F10). The study end day was Day 19.

Pan02 = Pan02 subcutaneous syngeneic pancreatic cancer mouse model (Study 3), tumor growth inhibition; type: in vivo, mouse (C57BL/6)
Description: as §1, §2, §3, §4, §5, §6, §7, §8, §9, §10
FIG. 62 is a graph showing the mean tumor volume on different study days in the study groups as indicated according to Study 3 (Pan02). The study end day was Day 32.

LL/2 = LL/2 subcutaneous syngeneic lung cancer mouse model (Study 6), tumor growth inhibition; type: in vivo, mouse (C57BL/6)
Description: as §1, §2, §3, §4, §5, §6, §7, §8, §9, §10
FIG. 65 is a graph showing the mean tumor volume on different study days in the study groups as indicated according to Study 6 (LL/2). The study end day was Day 32.

H22 = H22 subcutaneous syngeneic liver cancer mouse model (Study 11), tumor growth inhibition; type: in vivo, mouse (BALB/C)
Description: as §1, §2, §3, §4, §5, §6, §7, §8, §9, §10
FIG. 70 is a graph showing the mean tumor volume on different study days in the study groups as indicated according to Study 11 (H22). The study end day was Day 18.

A20 = A20 subcutaneous syngeneic lymphoma mouse model (Study 5), tumor growth inhibition; type: in vivo, mouse (BALB/C); conditions: A20 model, i.p.; ARI compounds 160 mg/kg QD × 14 doses, Anti-PD-1 10 BIW × 4 doses; study end day Day 26
Description: as §1, §2, §3, §4, §5, §6, §7, §8, §9, §10
FIG. 64 is a graph showing the mean tumor volume on different study days in the study groups as indicated according to Study 5 (A20). The study end day was Day 26.

Renca = Renca subcutaneous syngeneic kidney cancer mouse model (Study 8), tumor growth inhibition; type: in vivo, mouse (BALB/C)
Description: as §1, §2, §3, §4, §5, §6, §7, §8, §9, §10
FIG. 67 is a graph showing the mean tumor volume on different study days in the study groups as indicated according to Study 8 (Renca). The study end day was Day 28.

MC38 = MC38 subcutaneous syngeneic colon cancer mouse model (Study 1), tumor growth inhibition; type: in vivo, mouse (C57BL/6)
Description: as §1, §2, §3, §4, §5, §6, §7, §8, §9, §10
FIG. 60 is a graph showing the mean tumor volume on different study days in the study groups as indicated according to Study 1 (MC38). The study end day was Day 26.

EMT-6 = EMT-6 subcutaneous syngeneic breast cancer mouse model (Study 2 and Study 12), tumor growth inhibition; type: in vivo, mouse (BALB/C); conditions: EMT-6 syngeneic breast cancer model
Description: as §1, §2, §3, §4, §5, §6, §7, §8, §9, §10
FIG. 61 is a graph showing the mean tumor volume on different study days in the study groups as indicated according to Study 2 (EMT-6). The study end day was Day 27.

RM-1 = RM-1 subcutaneous syngeneic prostate cancer mouse model (Study 7), tumor growth inhibition; type: in vivo, mouse (C57BL/6); conditions: RM-1 model, study end day Day 19
Description: as §1, §2, §3, §4, §5, §6, §7, §8, §9, §10
FIG. 66 is a graph showing the mean tumor volume on different study days in the study groups as indicated according to Study 7 (RM-1). The study end day was Day 19.

Hepa1-6 = Hepa1-6 subcutaneous syngeneic liver cancer mouse model (Study 9), tumor growth inhibition; type: in vivo, mouse (C57BL/6)
Description: as §1, §2, §3, §4, §5, §6, §7, §8, §9, §10
FIG. 68 is a graph showing the mean tumor volume on different study days in the study groups as indicated according to Study 9 (Hepal-6). The study end day was Day 26.

CT26 = experiment: CT-26 subcutaneous syngeneic colon cancer mouse model (Study 4), tumor growth inhibition; type: in vivo, mouse (BALB/C); conditions: CT-26 model, i.p.; ARI compounds 160 mg/kg QD × 15 doses, Anti-PD-1 10 BIW × 5 doses; study end day Day 23
Description: as §1, §2, §3, §4, §5, §6, §7, §8, §9, §10
FIG. 63 is a graph showing the mean tumor volume on different study days in the study groups as indicated according to Study 4 (CT-26). The study end day was Day 23.

[1] = Pan02 model, i.p., ARI compounds 160 mg/kg QD × 28 doses, Anti-PD-1 10 BIW × 8 doses, study end day Day 32
[2] = Pan02 syngeneic pancreatic cancer model
[3] = MC38 model, i.p., ARI compounds 160 mg/kg QD × 17 doses, Anti-PD-1 10 BIW × 5 doses, study end day Day 26

## NC(=O)c1csc(C(=O)c2c[nH]c3ccccc23)n1 [ARI-003]
B16F10; B16F10 model, Mean ± SEM, study end day Day 19, in mm³
  Tumor size: 2234.18 ± 248.14
B16F10; B16F10 model, study end day Day 19
  TGI(%): 24%
B16F10; B16F10 syngeneic melanoma model
  anti-tumor potency of anti-PD-1 antibody combined with the compound, compared to the antibody alone or the vehicle: statistically significant increase
Pan02; [1]
  TGI(%): 62%
  Tumor size (Mean ± SEM): 340.16 ± 49.76 mm^3
Pan02; [2]
  anti-tumor potency of anti-PD-1 antibody combined with the compound, compared to the antibody alone: statistically significant increase
  anti-tumor potency of the compound combined with anti-PD-1 antibody, compared to being used alone: statistically significant increase
LL/2; LL/2 model, Mean ± SEM, study end day Day 32, in mm³
  Tumor size: 839.79 ± 99.43
LL/2; LL/2 model, study end day Day 32
  TGI(%): 62%
LL/2; LL/2 syngeneic lung cancer model
  anti-tumor potency of anti-PD-1 antibody combined with the compound, compared to the antibody alone or the vehicle: statistically significant increase
H22; H22 model, Mean ± SEM, study end day Day 18, in mm³
  Tumor size: 1547.54 ± 100.51
H22; H22 model, study end day Day 18
  TGI(%): 31%
H22; H22 syngeneic liver cancer model
  anti-tumor potency of the compound combined with anti-PD-1 antibody, compared to being used alone: statistically significant increase
A20
  TGI(%): 54%
  Tumor size (Mean ± SEM): 1206.83 ± 121.06 mm^3
Renca; Renca model, Mean ± SEM, study end day Day 28, in mm³
  Tumor size: 1240.04 ± 90.09
Renca; Renca model, study end day Day 28
  TGI(%): 42%
Renca; Renca syngeneic kidney cancer model
  anti-tumor potency of anti-PD-1 antibody combined with the compound, compared to the antibody alone: statistically significant increase
MC38; [3]
  TGI(%): 35%
  Tumor size (Mean ± SEM): 1691.11 ± 123.57 mm^3
MC38; MC38 syngeneic colon cancer model
  anti-tumor potency of anti-PD-1 antibody combined with the compound, compared to the antibody alone or the vehicle: statistically significant increase
EMT-6
  anti-tumor potency of anti-PD-1 antibody combined with the compound, compared to the antibody alone or the vehicle: statistically significant increase
RM-1; Mean ± SEM, in mm³
  Tumor size: 1703.05 ± 39.79
RM-1
  TGI(%): 43%
Hepa1-6; Hepa1-6 model, Mean ± SEM, study end day Day 26, in mm³
  Tumor size: 1251.31 ± 158.72
Hepa1-6; Hepa1-6 model, study end day Day 26
  TGI(%): 23%
Hepa1-6; Hepa1-6 syngeneic liver cancer model
  anti-tumor potency of the compound combined with anti-PD-1 antibody, compared to being used alone: statistically significant increase
CT26
  TGI(%): 64%
  Tumor size (Mean ± SEM): 836.51 ± 110.61 mm^3
